Reference: US20240316012A1, “METHODS FOR TREATING LYMPHOMA” (Northwestern University, priority 2023, published 2024)

Test system: ACLY (p-ACLY^S455)
Test: Western blot analysis of p-ACLY^S455
Type: cell-based, mouse
Conditions: overnight in vitro with anti-PD-L1; Wortmannin 20 nM, LY294002 20 μM; 2 μM, 10 μM
Experimental: FIGS. 4A-4H show ACLY is a critical effector molecule downstream of PD-1. […] ITK-SYK^+ cells were FACS-sorted from ITK-SYK^CD4-creERT2 mice on d5 after TAM and 12 h anti-PD-L1 or isotype control antibody treatment (i.p., 200 μg). P=paired two-sided Student's t-test. Data are presented as the mean±SD. […] Spleen-derived single-cell suspensions were FACS-sorted from ITK-SYK^CD4-creERT2 mice on d5 after TAM and cultured in vitro overnight with anti-PD-L1 or isotype control antibodies and the PI3K inhibitors (“iPI3K”) Wortmannin (20 nM), LY294002 (20 μM), or DMSO. […] Spleen-derived lymphocytes, FACS-sorted from ITK-SYK^CD4-creERT2 and ITK-SYK^CD4-creERT2; Pdcd1^−/− mice on d5 after TAM were incubated for three days in vitro. P=two-sided Student's t-test. Data are presented as the mean±SD. […] Protein lysates were generated after 48 h in vitro culture. RNP, ribonucleoprotein. […] P=two-sided Logrank-test. […] ITK-SYK^+ cells were FACS-sorted from ITK-SYK^CD4-creERT2 (“Pdcd1^+/+”) and ITK-SYK^CD4-creERT2; Pdcd1^−/− (“Pdcd1^−/−”) mice on d5 after TAM, fixed, and processed for anti-H3K27ac ChIP-seq analysis. ChIP-seq, chromatin immunoprecipitation sequencing; TSS, transcription start site. FIG. 4B, Representative data from three independent experiments with three biological replicates per group. FIG. 4C, Representative data from two independent experiments with two biological replicates. […]

O=c1cc(N2CCOCC2)oc2c(-c3ccccc3)cccc12 [LY294002, 2-(4-morpholinyl)-8-phenyl-4H-1-benzopyran-4-one]
p-ACLY^S455 phosphorylation induced by PD-1 inactivation: could be reversed
